# Biological target: T1, b-Raf(V600E) (Homo sapiens, UniProt P15056, V600E)
# T1 construct: made in house
# Assay: Raf/Mek Amplified Luminescence Proximity Homogeneous Assay (Alpha Screen), b-Raf(V600E)
# Type: biochemical
# Conditions: mutant b-Raf(V600E), read-out: mut-b-RAF (IC50 in uM)
# Procedure: Assay buffer: 50 mM Tris, pH 7.5, 15 mM MgCl2, 0.01% BSA, 1 mM DTT Stop buffer: 60 mM EDTA, 0.01% Tween20 Bead buffer: 50 mM Tris, pH 7.5, 0.01% Tween20
# b-Raf(V600E), active: Recombinant in-house material biotinylated Mek, kinase dead: Recombinant in-house material Alpha Screen detection kit PerkinElmer, #6760617R Anti phospho-MEK½ Cell signaling #9121 384 well assay plates: White Greiner plates, #781207
# b-Raf(V600E) approximately 4 pM c-Raf approximately 4 nM biotinylated Mek, Kinase dead approximately 10 nM
# Pre-incubation time with compounds 60 min at room temperature Reaction time 1 or 3 hours at room temperature
# Raf and biotinylated Mek, kinase dead, were combined at 2× final concentrations in assay buffer (50 mM Tris, pH 7.5, 15 mM MgCl2, 0.01% BSA and 1 mM DTT) and dispensed 10 μl per well in assay plates (Greiner white 384 well assay plates #781207) containing 0.5 μl of 40× of a raf kinase inhibitor test compound diluted in 100% DMSO. The plate was incubated for 60 min at room temperature.
# The Raf kinase activity reaction was started by the addition of 10 μl per well of 2×ATP diluted in assay buffer. After 3 hours (bRaf(V600E)) or 1 hour (c-Raf), the reactions were stopped with the addition of 10 μl of stop reagent (60 mM EDTA). Phosphorylated product was measured using a rabbit anti-p-MEK (Cell Signaling, #9121) antibody and the Alpha Screen IgG (Protein A) detection Kit (PerkinElmer #6760617R), by the addition of 30 μL to the well of a mixture of the antibody (1:2000 dilution) and detection beads (1:2000 dilution of both beads) in bead buffer (50 mM Tris, pH 7.5, 0.01% Tween20). The additions were carried out under dark conditions to protect the detection beads from light. A lid was placed on top of the plate and incubated for 1 hour at room temperature, then the luminescence was read on a PerkinElmer Envision instrument. The concentration of each compound for 50% inhibition (IC50) was calculated by non-linear regression using XL Fit data analysis software.
# The Raf/Mek Amplified Luminescence Proximity Homogeneous Assay described was used to generate the luminescence and mutant b-Raf(V600E) IC50 data for selected Raf Kinase Inhibitors shown in Table 1 above.
# T1 sequence (P15056 whole entry V600E): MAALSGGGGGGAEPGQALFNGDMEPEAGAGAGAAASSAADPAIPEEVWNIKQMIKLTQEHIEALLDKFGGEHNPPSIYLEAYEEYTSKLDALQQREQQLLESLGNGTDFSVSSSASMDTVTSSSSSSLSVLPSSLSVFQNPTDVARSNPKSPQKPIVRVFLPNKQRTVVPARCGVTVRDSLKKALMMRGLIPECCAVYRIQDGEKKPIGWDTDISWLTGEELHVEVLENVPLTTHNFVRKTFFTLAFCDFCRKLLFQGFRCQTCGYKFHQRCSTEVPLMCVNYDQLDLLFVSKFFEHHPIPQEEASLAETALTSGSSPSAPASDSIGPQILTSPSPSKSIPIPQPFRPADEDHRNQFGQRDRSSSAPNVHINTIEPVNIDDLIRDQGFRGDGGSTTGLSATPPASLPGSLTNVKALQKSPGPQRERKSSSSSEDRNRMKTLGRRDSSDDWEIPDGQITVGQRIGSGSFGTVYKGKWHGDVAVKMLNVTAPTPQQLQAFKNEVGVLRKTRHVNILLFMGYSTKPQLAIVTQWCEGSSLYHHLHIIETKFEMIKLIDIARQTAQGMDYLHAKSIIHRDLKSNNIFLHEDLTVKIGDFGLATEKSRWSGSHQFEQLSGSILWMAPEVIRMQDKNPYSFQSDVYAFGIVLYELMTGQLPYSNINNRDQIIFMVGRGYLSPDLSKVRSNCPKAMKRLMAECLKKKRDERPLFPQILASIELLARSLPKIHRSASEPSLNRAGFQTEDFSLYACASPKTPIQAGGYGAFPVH
row,SMILES,IC50 [µM]
1,"COc1cc(-c2nc(-c3ccccc3)[nH]c2-c2ccnc(C)c2)cnc1N [Compound 48, 3-methoxy-5-(5-(2-methylpyridin-4-yl)-2-phenyl-1H-imidazol-4-yl)pyridin-2-amine]",0.12
2,"COc1cc(-c2nc(C3CCCCC3)[nH]c2-c2ccncc2)cnc1N [Compound 118, 5-(2-cyclohexyl-5-(pyridin-4-yl)-1H-imidazol-4-yl)-3-methoxypyridin-2-amine]",0.002
3,"CNc1ncc(-c2nc(-c3ccccc3)[nH]c2-c2ccncc2)cn1 [Compound 83, N-methyl-5-(2-phenyl-5-(pyridin-4-yl)-1H-imidazol-4-yl)pyrimidin-2-amine]",0.197
4,"c1ccc(-c2nc(-c3ccncc3)c(-c3cnc4c(n3)CCN4)[nH]2)cc1 [Compound 59, 2-(2-phenyl-4-(pyridin-4-yl)-1H-imidazol-5-yl)-6,7-dihydro-5H-pyrrolo[3,2-b]pyrazine]",0.68
5,"COc1cc(-c2[nH]c(-c3ccc(F)cc3)nc2-c2cn[nH]c2)cnc1N [Compound 96, 5-(2-(4-fluorophenyl)-4-(1H-pyrazol-4-yl)-1H-imidazol-5-yl)-3-methoxypyridin-2-amine]",0.0321
6,"COc1cc(-c2[nH]c(-c3cccc(S(C)(=O)=O)c3)nc2-c2ccncc2)cnc1N [Compound 120, 3-methoxy-5-(2-(3-(methylsulfonyl)phenyl)-4-(pyridin-4-yl)-1H-imidazol-5-yl)pyridin-2-amine]",0.0088
7,"N#Cc1cc(-c2[nH]c(-c3ccccc3)nc2-c2ccncc2)cnc1N [Compound 87, 2-amino-5-(2-phenyl-4-(pyridin-4-yl)-1H-imidazol-5-yl)nicotinonitrile]",0.391
8,"COCC(=O)NCCNc1nccc(-c2nc(-c3ccccc3)[nH]c2-c2cnc(N)c(OC)c2)n1 [Compound 68, N-(2-(4-(5-(6-amino-5-methoxypyridin-3-yl)-2-phenyl-1H-imidazol-4-yl)pyrimidin-2-ylamino)ethyl)-2-methoxyacetamide]",0.0001
9,"COc1cc(-c2[nH]c(-c3ccc(F)cc3)nc2-c2ccnc3[nH]ccc23)cnc1N [Compound 129, 5-(2-(4-fluorophenyl)-4-(1H-pyrrolo[2,3-b]pyridin-4-yl)-1H-imidazol-5-yl)-3-methoxypyridin-2-amine]",0.0088
10,"COc1cc(-c2[nH]c(-c3ccc(F)cc3)nc2-c2ccnc(NCCNS(=O)(=O)C3CC3)n2)cnc1N [Compound 98, N-(2-(4-(5-(6-amino-5-methoxypyridin-3-yl)-2-(4-fluorophenyl)-1H-imidazol-4-yl)pyrimidin-2-ylamino)ethyl)cyclopro-panesulfonamide]",0.0001
11,"COc1cc(-c2[nH]c(-c3ccc(S(N)(=O)=O)cc3)nc2-c2ccncc2)cnc1N [Compound 121, 4-(5-(6-amino-5-methoxypyridin-3-yl)-4-(pyridin-4-yl)-1H-imidazol-2-yl)benzenesulfonamide]",0.0017
12,"c1ccc(-c2nc(-c3ccncc3)c(-c3cnc4[nH]cnc4c3)[nH]2)cc1 [Compound 53, 6-(2-phenyl-4-(pyridin-4-yl)-1H-imidazol-5-yl)-3H-imidazo[4,5-b]pyridine]",0.29
13,"COc1cc(-c2nc(-c3ccc(F)cc3)[nH]c2-c2ccnc(NCC(C)C)n2)cnc1N [Compound 159, 4-(4-(6-amino-5-methoxypyridin-3-yl)-2-(4-fluorophenyl)-1H-imidazol-5-yl)-N-isobutylpyrimidin-2-amine]",0.0015

# Other lines, results leading:
row,IC50 [µM],SMILES
1,0.0002,"COc1nc(-c2nc(C(C)(C)C)[nH]c2-c2ccnc(NC[C@H](C)NC(=O)[C@H](C)OC)n2)cnc1N [Compound 242, (S)-N-((S)-1-(4-(4-(5-amino-6-methoxypyrazin-2-yl)-2-tert-butyl-1H-imidazol-5-yl)pyrimidin-2-ylamino)propan-2-yl)-2-methoxypropanamide]"
2,0.892,"COc1cc(-c2[nH]c(-c3ccc(F)cc3)nc2-c2ccnc(O)n2)cnc1N [Compound 180, 4-(5-(6-amino-5-methoxypyridin-3-yl)-2-(4-fluorophenyl)-1H-imidazol-4-yl)pyrimidin-2-ol]"
3,0.0005,"COc1cc(-c2nc(C(C)(C)C)[nH]c2-c2ccnc(N)n2)cnc1N [Compound 201, 4-(4-(6-amino-5-methoxypyridin-3-yl)-2-tert-butyl-1H-imidazol-5-yl)pyrimidin-2-amine]"
4,0.0007,"COc1cc(-c2[nH]c(-c3ccc4[nH]ncc4c3)nc2-c2ccncc2)cnc1N [Compound 167, 5-(2-(1H-indazol-5-yl)-4-(pyridin-4-yl)-1H-imidazol-5-yl)-3-methoxypyridin-2-amine]"
5,0.0001,"COc1cc(-c2nc(C(C)(C)C)[nH]c2-c2ccnc(NCC(C)C)n2)cnc1N [Compound 209, 4-(4-(6-amino-5-methoxypyridin-3-yl)-2-tert-butyl-1H-imidazol-5-yl)-N-isobutylpyrimidin-2-amine]"
6,0.0084,"COc1cc(-c2nc(-c3ccc(C(F)(F)F)cc3)oc2-c2ccnc(NCC(C)C)c2)cnc1N [Compound 232, 4-(4-(6-amino-5-methoxypyridin-3-yl)-2-(4-(trifluoromethyl)phenyl)-oxazol-5-yl)-N-isobutylpyridin-2-amine]"
7,0.0001,"[2H]C([2H])([2H])Oc1nc(-c2nc(C(C)(C)C)[nH]c2-c2ccnc(NC[C@H](C)NC(=O)OC)n2)cnc1N [Compound 261, (S)-methyl 1-(4-(4-(5-amino-6-(D3-methoxy)pyrazin-2-yl)-2-tert-butyl-1H-imidazol-5-yl)pyrimidin-2-ylamino)propan-2-ylcarbamate]"
8,0.0001,"COc1nc(-c2nc(C(C)(C)C)[nH]c2-c2ccnc(NC[C@H](C)NC(=O)OCC(C)(C)C)n2)cnc1N [Compound 238, (S)-neopentyl 1-(4-(4-(5-amino-6-methoxypyrazin-2-yl)-2-tert-butyl-1H-imidazol-5-yl)pyrimidin-2-ylamino)propan-2-ylcarbamate]"
9,0.038,"COc1cc(-c2[nH]c(-c3ccc(F)cc3)nc2-c2ccnc(N[C@@H]3CCN(C(C)=O)C3)n2)cnc1N [Compound 193, (R)-1-(3-(4-(5-(6-amino-5-methoxypyridin-3-yl)-2-(4-fluorophenyl)-1H-imidazol-4-yl)pyrimidin-2-ylamino)pyrrolidin-1-yl)ethanone]"
10,0.0039,"COCC(=O)N[C@@H](C)CNc1nccc(-c2[nH]c(C3CC3)nc2-c2nc(OC)c(N)nc2C)n1 [Compound 255, (S)-N-(1-(4-(4-(5-amino-6-methoxy-3-methylpyrazin-2-yl)-2-cyclopropyl-1H-imidazol-5-yl)pyrimidin-2-ylamino)propan-2-yl)-2-methoxyacetamide]"
11,0.001,"COc1cc(-c2nc(-c3ccccc3)[nH]c2-c2ccncc2)cnc1N [Example 1, 3-Methoxy-5-(2-phenyl-5-(pyridine-4-yl)-1H-imidazol-4-yl)pyridine-2-amine]"
12,0.008,"COc1cc(-c2[nH]c(-c3ccc(F)cc3)nc2-c2ccnc(N[C@H]3CCN(C(C)=O)C3)n2)cnc1N [Compound 194, (S)-1-(3-(4-(5-(6-amino-5-methoxypyridin-3-yl)-2-(4-fluorophenyl)-1H-imidazol-4-yl)pyrimidin-2-ylamino)pyrrolidin-1-yl)ethanone]"
13,0.0163,"COc1cc(-c2[nH]c(-c3ccc(F)cc3)nc2-c2ccnc(NC3CCCC3)n2)cnc1N [Compound 164, 4-(5-(6-amino-5-methoxypyridin-3-yl)-2-(4-fluorophenyl)-1H-imidazol-4-yl)-N-cyclopentylpyrimidin-2-amine]"
14,0.0001,"COc1cc(Nc2nccc(-c3[nH]c(C(C)(C)C)nc3-c3cnc(N)c(OC)c3)n2)ccn1 [Compound 230, 4-(4-(6-amino-5-methoxypyridin-3-yl)-2-tert-butyl-1H-imidazol-5-yl)-N-(2-methoxypyridin-4-yl)pyrimidin-2-amine]"
15,0.0002,"COc1cc(-c2nc(C(C)(C)C)[nH]c2-c2ccnc(Nc3ccc(C(F)(F)F)cc3)n2)cnc1N [Compound 221, 4-(4-(6-amino-5-methoxypyridin-3-yl)-2-tert-butyl-1H-imidazol-5-yl)-N-(4-(trifluoromethyl)phenyl)-pyrimidin-2-amine]"
16,0.0001,"COc1nc(-c2nc(C(C)(C)C)[nH]c2-c2ccnc(NC[C@H](C)NC(=O)OC(C)C)n2)cnc1N [Compound 237, (S)-isopropyl 1-(4-(4-(5-amino-6-methoxypyrazin-2-yl)-2-tert-butyl-1H-imidazol-5-yl)pyrimidin-2-ylamino)propan-2-ylcarbamate]"

# Source: patent US20100003246A1, “Novel heterocyclic compounds and uses therof” (priority 2008, published 2010)
